From ChEMBL document CHEMBL2074204, “The endothelin antagonist bosentan inhibits the canalicular bile salt export pump: a potential mechanism for hepatic adverse reactions” (Clin Pharmacol Ther, 2001)

Molecular target: T1, Bile salt export pump (Rattus norvegicus, UniProt O70127)
T1 sequence (O70127 whole entry): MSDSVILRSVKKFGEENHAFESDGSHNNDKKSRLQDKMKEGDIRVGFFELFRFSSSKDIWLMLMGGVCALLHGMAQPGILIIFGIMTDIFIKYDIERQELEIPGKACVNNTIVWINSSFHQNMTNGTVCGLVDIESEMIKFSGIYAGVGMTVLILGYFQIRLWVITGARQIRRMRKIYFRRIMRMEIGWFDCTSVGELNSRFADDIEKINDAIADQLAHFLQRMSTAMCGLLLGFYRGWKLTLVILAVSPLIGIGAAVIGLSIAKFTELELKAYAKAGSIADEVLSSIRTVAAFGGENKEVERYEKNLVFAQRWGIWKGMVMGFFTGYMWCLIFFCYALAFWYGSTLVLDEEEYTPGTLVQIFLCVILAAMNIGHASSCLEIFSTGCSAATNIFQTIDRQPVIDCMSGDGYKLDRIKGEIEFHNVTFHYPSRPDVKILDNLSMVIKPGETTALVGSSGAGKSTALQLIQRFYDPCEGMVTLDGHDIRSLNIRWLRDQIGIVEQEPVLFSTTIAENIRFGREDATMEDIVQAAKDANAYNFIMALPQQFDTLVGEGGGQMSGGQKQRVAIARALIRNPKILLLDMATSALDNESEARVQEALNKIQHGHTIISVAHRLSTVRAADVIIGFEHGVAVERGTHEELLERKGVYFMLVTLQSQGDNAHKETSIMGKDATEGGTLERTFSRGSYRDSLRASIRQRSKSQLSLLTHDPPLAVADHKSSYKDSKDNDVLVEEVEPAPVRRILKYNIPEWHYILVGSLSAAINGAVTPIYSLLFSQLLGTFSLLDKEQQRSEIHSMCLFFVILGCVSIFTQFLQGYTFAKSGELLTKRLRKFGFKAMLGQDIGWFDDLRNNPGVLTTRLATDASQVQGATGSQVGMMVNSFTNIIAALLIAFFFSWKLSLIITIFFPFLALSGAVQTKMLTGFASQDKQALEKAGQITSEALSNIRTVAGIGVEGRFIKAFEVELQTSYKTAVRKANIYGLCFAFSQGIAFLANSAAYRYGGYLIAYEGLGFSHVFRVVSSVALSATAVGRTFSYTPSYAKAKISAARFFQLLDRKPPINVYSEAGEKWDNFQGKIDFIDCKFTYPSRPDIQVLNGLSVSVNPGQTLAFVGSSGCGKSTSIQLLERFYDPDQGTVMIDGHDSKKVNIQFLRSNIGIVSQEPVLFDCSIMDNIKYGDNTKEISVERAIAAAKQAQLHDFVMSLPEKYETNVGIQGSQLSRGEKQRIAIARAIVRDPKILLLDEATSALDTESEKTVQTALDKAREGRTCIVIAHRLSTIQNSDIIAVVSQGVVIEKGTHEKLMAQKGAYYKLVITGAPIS
Assay: TP_TRANSPORTER: inhibition of Taurocholate uptake in membrane vesicle from Bsep-expressing Sf9-cell
Format: functional, cell membranes

Row | SMILES | Ki
1 | CC(C)(C)c1ccc(S(=O)(=O)Nc2nc(-c3ncccn3)nc(OCCO)c2Cc2ccccc2O)cc1 [BOSENTAN M2] | 8.5 µM
2 | COc1ccccc1Oc1c(NS(=O)(=O)c2ccc(C(C)(C)C)cc2)nc(-c2ncccn2)nc1OCCO [BOSENTAN] | 12 µM
